Assays:
submucosal lesions = experiment: Cytoprotection: inhibition of submucosal gastric lesions induced by oral 50 percent ethanol; type: in vivo, Male Charles River rats; settings: for Percent Inhibition of Submucosal Lesions, Oral: 2 percent aqueous ethanol vehicle; for Percent Inhibition of Submucosal Lesions, Topical: topical to shaved skin, 25 percent ethanolic water; for cytoprotection when applied topically (in words): topical, at the same unit dose as effective orally
Procedure: Male Charles River rats weighing about 200 g each were fasted overnight, but were allowed water ad libitum. Rats used for the topical administration of this invention were shaved on their dorsal sides one day prior to being used as host mammals.
Compositions containing the active ingredient were prepared for oral administration by dissolving a prostaglandin in a 2 percent aqueous ethanolic solution that was administered in a dose volume of 0.2 milliliters per kilogram (ml/kg) of body weight at the unit dosages shown in Table 1 hereinafter. […] A fixed concentration for each dose was applied to the skin in a volume of 0.2 ml per rat.
Gastric lesions were induced by oral administration of 1.0 ml of a 50 percent ethanolic water solution that was administered one hour after administration of each of the active ingredients. The rats were sacrificed by asphyxiation one hour after gastric lesion induction using carbon dioxide. The rat stomachs were then removed, inflated with water, opened along the greater curvature, and were laid out on a flat surface. The presence of mucosal bleeding was noted, the mucosal layers were wiped, and the presence or absence of hemorrhagic sites was recorded.
The incidences of lesions compared to controls were statistically analyzed by either the method of Chi-square using Yate's correction or Fisher's Exact Probability Test.

gastric acid secretion [1] = experiment: Inhibition of gastric acid secretion (pylorus ligation); type: in vivo, Male Charles River CD rats; settings: for Percent Inhibition of Acid, Intraduodenal / Percent Inhibition of Acid, Topical: 4 h after pylorus ligation; for Percent Inhibition of Acid, Intraduodenal: 2 percent ethanolic water; for Percent Inhibition of Acid, Topical: topical to shaved skin, 25 percent ethanolic water
Procedure: Male Charles River CD rats weighing about 180 g each were shaved on their dorsal sides and derpived of food for a time period of 18 hours prior to use. Water was permitted ad libitim during that time, but was removed during the times at which the rats were studied as host mammals.
Compositions containing the active ingredient were administered intraduodenally at 1 ml/kg or were applied to directly contact the shaved skin at 0.2 ml/animal at the time the pylorus of each animal was ligated.
The animals were sacrificed by asphyxiation four hours after pylorus ligation using carbon dioxide. The gastric contents were collected in graduated centrifuge tubes that were centrifuged. The centrifugally separated supernatents were then analyzed for volume and acidity. Acid concentration (secretion) was determined by electrometric titration of a 1 ml aliquot of the recovered gastric juice against 0.1N NaOH to a pH value of 7.4.
Treated groups were compared to the control and statistical differences were declared by the method of least significant differences.
(treatment-control)/control×100%

gastrointestinal mucosa = settings: in vivo; cited from earlier work
gastric acid secretion [2] = settings: given orally to rats, at any dose; cited from earlier work
[3] = test system: indomethacin-induced gastric lesions; settings: oral administration; cited from earlier work
gastric acid secretion [4] = settings: laboratory animals and man; cited from earlier work
[5] = 5 μg/kg (estimate based on 200 g rat)
[6] = 25 μg/kg, lesions by 50 percent ethanol 1 h after agent
[7] = 25 μg/kg (estimate based on 200 g rat)

Question: Which results are given for `CCCCC(C)(O)C/C=C/[C@H]1[C@H](O)CC(=O)[C@@H]1CCCCCCC(=O)OC` (mixture of isomers) [Misoprostol, (±)(11α,13E)-11,16-dihydroxy-16-methyl-9-oxo-prost-13-en-1-oic acid methyl ester]?
Answer: Percent Inhibition of Submucosal Lesions, Oral (submucosal lesions; 100 μg/kg): 87%; Percent Inhibition of Submucosal Lesions, Topical (submucosal lesions; 100 μg/kg (estimate based on 200 g rat)): 75%; cytoprotection when applied topically (in words) (submucosal lesions): effective at the same oral dose when applied externally; Percent Inhibition of Acid, Intraduodenal (gastric acid secretion [1]; 8.0 mg/kg): 38%; Percent Inhibition of Acid, Topical (gastric acid secretion [1]; 8.0 mg/kg): 43%

Question: Which “Percent Inhibition of Submucosal Lesions, Oral” value (shortened to “Percent Inhibition … Oral”) (submucosal lesions; 5 μg/kg) does the source give for `COC(=O)CCC=C=CC[C@H]1C(=O)C[C@@H](O)[C@@H]1/C=C/C(O)COc1ccccc1` (relative stereo) [Enprostil, 7-[3-hydroxy-2-(3-hydroxy-4-phenoxy-1-butenyl)-5-oxocyclopentyl]-4,5-heptad ienoic acid methyl ester] here?
Answer: Its value is 100%.

Question: What about the “Percent Inhibition of Submucosal Lesions, Topical” value (submucosal lesions; [5]) of the same compound?
Answer: Its value is 100%.

Question: And the “cytoprotection when applied topically (in words)” value (“cytoprotection” for short) (submucosal lesions)?
Answer: The value was “effective at the same oral dose when applied externally”.

Question: And the “Percent Inhibition of Acid, Intraduodenal” value (gastric acid secretion [1]; 1.0 mg/kg)?
Answer: Its value is 71%.

Question: And the “Percent Inhibition of Acid, Topical” value (gastric acid secretion [1]; 1.0 mg/kg)?
Answer: Its value is 32%.

Question: For `CCCCC(C)(C)C(O)/C=C/[C@H]1[C@H](C)CC(=O)[C@@H]1C/C=C\CCCC(=O)O` (relative stereo) [Trimoprostil, (±)9-oxo-11α-methyl-15-hydroxy-16,16-dimethyl-5-cis,13-trans-prost adienoic acid], which “Percent Inhibition of Acid, Intraduodenal” value (gastric acid secretion [1]; 8.0 mg/kg) is on record?
Answer: The value was 38%.

Question: And the “Percent Inhibition of Acid, Topical” value (gastric acid secretion [1]; 8.0 mg/kg)?
Answer: Its value is 9%.

Question: What about the “inhibition of gastric acid when applied topically (in words)” value (gastric acid secretion [1]; topical, at the unit dosage effective intraduodenally) of the same compound?
Answer: Its value is “ineffective at significantly inhibiting production of gastric acid, when applied topically”.

Question: For `C[N+]1(C)[C@@H]2C[C@@H](OC(=O)[C@H](CO)c3ccccc3)C[C@H]1[C@@H]1O[C@@H]12` (stereo in doubt) [methscopolamine bromide], which cytoprotective activity (gastrointestinal mucosa) is on record?
Answer: The cytoprotective activity was “not cytoprotective in the models employed”.

Question: Which antisecretory activity (gastric acid secretion [2]) does the source give for `CCCCC[C@@](C)(O)/C=C/[C@@H]1[C@@H](C/C=C\CCCC(=O)O)[C@H](O)C[C@H]1O` [15(R)-15 methyl PGF2β] here?
Answer: Its antisecretory activity is “not antisecretory at any dose when given orally to rats”.

Question: What about the cytoprotective activity (gastrointestinal mucosa) of the same compound?
Answer: Its cytoprotective activity is “cytoprotective”.

Question: Which antisecretory activity (gastric acid secretion [2]) does the source give for `CCCCC(C)(C)[C@H](O)/C=C/[C@H]1C=CC(=O)[C@@H]1C/C=C\CCCC(=O)O` [16,16-dimethyl PGA2] here?
Answer: The antisecretory activity was “not antisecretory at any dose when given orally to rats”.

Question: What about the cytoprotective activity (gastrointestinal mucosa) of the same compound?
Answer: Its cytoprotective activity is “cytoprotective”.

Question: Which “protection from indomethacin-induced gastric lesions” value [3] does the source give for `CCCCC[C@H](O)/C=C/[C@H]1C=CC(=O)[C@@H]1CCCCCCC(=O)O` [PGA1] here?
Answer: The value was “does not protect rats from indomethacin-induced gastric lesions”.

Question: Which “protection from indomethacin-induced gastric lesions” value [3] does the source give for `CCCCC[C@H](O)/C=C/[C@H]1C(=O)C[C@H](O)[C@@H]1C/C=C\CCCC(=O)O` [PGD2] here?
Answer: Its value is “does not protect rats from indomethacin-induced gastric lesions”.

Question: For `CCCCC[C@H](O)/C=C/[C@H]1[C@H](O)CC(=O)[C@@H]1CCCCCCC(=O)O` [PGE1, 9-oxo-11 alpha,15-dihydroxy-13-trans-prostenoic acid], which “Percent Inhibition … Oral” value (submucosal lesions; [6]) is on record?
Answer: Its value is 60%.

Question: And the “Percent Inhibition of Submucosal Lesions, Topical” value (submucosal lesions; [7])?
Answer: Its value is 10%.

Question: And the “cytoprotection” value (submucosal lesions)?
Answer: Its value is “ineffective at providing cytoprotection when applied topically”.

Question: And the gastric antisecretory activity (gastric acid secretion [4])?
Answer: Its gastric antisecretory activity is “have gastric antisecretory activity in both laboratory animals and man”.

Question: Which “Percent Inhibition … Oral” value (submucosal lesions; [6]) does the source give for `CCCCC[C@H](O)/C=C/[C@H]1[C@H](O)CC(=O)[C@@H]1C/C=C\CCCC(=O)O` [PGE2, 9-oxo-11α,15-dihydroxy-5-cis,13-transprostadienoic acid] here?
Answer: Its value is 40%.

Question: What about the “Percent Inhibition of Submucosal Lesions, Topical” value (submucosal lesions; [7]) of the same compound?
Answer: Its value is 20%.

Question: What about the “cytoprotection” value (submucosal lesions) of the same compound?
Answer: Its value is “ineffective at providing cytoprotection when applied topically”.

Question: What about the gastric antisecretory activity (gastric acid secretion [4]) of the same compound?
Answer: The gastric antisecretory activity was “have gastric antisecretory activity in both laboratory animals and man”.

Question: Which results are given for `CCCCC(C)(O)C/C=C/[C@H]1[C@H](O)CC(=O)[C@@H]1CCCCCCCO` (stereo partly drawn) [Rioprostil, (11α,13E)-1,11,16-trihydroxy-16-methyl-prost-13-en-9-one]?
Answer: Percent Inhibition of Submucosal Lesions, Oral (submucosal lesions; [6]): 87%; Percent Inhibition of Submucosal Lesions, Topical (submucosal lesions; [7]): 75%; cytoprotection when applied topically (in words) (submucosal lesions): effective at the same oral dose when applied externally; Percent Inhibition of Acid, Intraduodenal (gastric acid secretion [1]; 8.0 mg/kg): 35%; Percent Inhibition of Acid, Topical (gastric acid secretion [1]; 8.0 mg/kg): 37%

Question: For `CN/C(=N/CCSCc1nc[nH]c1C)NC#N` [cimetidine], which cytoprotective activity (gastrointestinal mucosa) is on record?
Answer: Its cytoprotective activity is “not cytoprotective in the models employed”.

Question: What does the source list for `CCCCC(C)(C)[C@H](O)/C=C/[C@H]1[C@H](O)CC(=O)[C@@H]1C/C=C\CCCC(=O)O` [dmPGE2, (5Z,11α,13E,15R)-11,15-dihydroxy-16,16-dimethyl-9-oxo-prosta-5,13-1-o ic acid acid]?
Answer: Percent Inhibition of Submucosal Lesions, Oral (submucosal lesions; 5 μg/kg): 100%; Percent Inhibition of Submucosal Lesions, Topical (submucosal lesions; [5]): 100%; cytoprotection when applied topically (in words) (submucosal lesions): effective at the same oral dose when applied externally; Percent Inhibition of Acid, Intraduodenal (gastric acid secretion [1]; 1.0 mg/kg): 29%; Percent Inhibition of Acid, Topical (gastric acid secretion [1]; 1.0 mg/kg): 26%
